Four compounds from ChEMBL document CHEMBL1201862, “PubChem BioAssay data set” (2004) can be followed below.

Some test systems named below: A549; CCRF-CEM; COLO 205; HCC 2998; HCT-116; HCT-15; HT-29; Hs-578T; IGROV-1; MCF7; MOLT-4; Malme-3M; NCI-H23; PC-3; SNB-75; SR; T47D; TK-10; UO-31; HL-60.
Test in all cases: NCI anticancer screen, dose series, 48 h

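Five concentrations, 48 hours, 96-well plates. GI50 marks 50% less growth.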 The source made the active and inactive calls. Rule as the data show it: active = GI50 up to about 1.1 µM and inactive = higher. Bounds are passed on as bounds.

Turning to `CN(C)Cc1cc(C(C)(C)C)cc(CNC2CCCCC2)c1O`, the GI50 in the assay with A549 is 29.6 µM (inactive); with CCRF-CEM, 12.9 µM (inactive); with COLO 205, 15.9 µM (inactive); in the assay on HCC 2998, 11.6 µM (inactive); in the assay with HCT-116 it was 25.4 µM (inactive); in the assay with HCT-15, 28.8 µM. For the same compound, the GI50 in the assay on HT-29 is 17.5 µM (inactive); with Hs-578T it was 61.2 µM (inactive); in the assay on IGROV-1 it was 29.4 µM (inactive); in the assay with MCF7 it was 29.4 µM (inactive); in the assay with MOLT-4, 12.3 µM (inactive); in the assay on Malme-3M, 25.6 µM (inactive). Moreover, the GI50 in the assay with NCI-H23 is 69.7 µM (inactive); with PC-3, 24.6 µM (inactive); in the assay on SNB-75 it was 52.4 µM (inactive); in the assay with SR it was 19.7 µM (inactive); in the assay on T47D, 63.5 µM (inactive); in the assay on TK-10, 27.7 µM (inactive). The GI50 in the assay on UO-31 is 15.6 µM (inactive).
Turning to `CC1=C/C(=N\O)C(C(O)(C(F)(F)F)C(F)(F)F)C(C)(C)C1` (stereo not given), the GI50 was > 10 µM (inactive) with A549; > 10 µM (inactive) in the assay on CCRF-CEM; > 10 µM (inactive) with COLO 205; > 10 µM (inactive) in the assay with HCC 2998; > 10 µM (inactive) with HCT-116; greater than 10 µM in the assay with HCT-15. Further, the GI50 with HT-29, with Hs-578T, in the assay with IGROV-1, in the assay on MCF7, with MOLT-4 and in the assay with Malme-3M was > 10 µM (inactive) in each case. Further, the GI50 is > 10 µM (inactive) in the assay on NCI-H23; > 10 µM (inactive) in the assay on PC-3; 3.49 µM (inactive) with SNB-75; > 10 µM (inactive) in the assay on SR; > 10 µM (inactive) in the assay on T47D; > 10 µM (inactive) in the assay with TK-10. Moreover, in the assay with UO-31, the GI50 is > 10 µM (inactive).
In the case of `CN(C)/C=N\c1cccc2cnccc12`, the GI50 with A549 is > 100 µM (inactive); with CCRF-CEM it was > 100 µM (inactive); in the assay with COLO 205, > 100 µM (inactive); with HCT-116 it was > 100 µM (inactive); in the assay with HCT-15, greater than 100 µM; in the assay with HL-60 it was > 100 µM (inactive). The GI50 in the assay on HT-29, in the assay on Hs-578T, with IGROV-1, with MCF7, in the assay on MOLT-4 and in the assay on Malme-3M was > 100 µM (inactive) throughout. Also, the GI50 in the assay with NCI-H23 was > 100 µM (inactive); with PC-3 it was > 100 µM (inactive); in the assay on SNB-75, 44.8 µM (inactive); in the assay with SR, > 100 µM (inactive); in the assay on T47D it was > 100 µM (inactive); in the assay with TK-10, > 100 µM (inactive). The GI50 with UO-31 was > 100 µM (inactive).
As to `CN(C)CCNc1ccc(NCCN(C)C)c2c1C(=O)c1ncsc1C2=O`, the GI50 with A549 is 11.9 µM (inactive); with CCRF-CEM it was 3.08 µM (inactive); in the assay on COLO 205 it was 12.4 µM (inactive); in the assay with HCC 2998 it was 15 µM (inactive); in the assay on HCT-116, 8.18 µM (inactive); with HCT-15, 11.4 µM. The GI50 with HT-29 is 6.46 µM (inactive); in the assay on Hs-578T, 17.7 µM (inactive); in the assay on IGROV-1, 13.5 µM (inactive); with MCF7, 7.33 µM (inactive); in the assay on MOLT-4 it was 1.94 µM (inactive); in the assay with NCI-H23, 15.2 µM (inactive). Further, the GI50 was 15.3 µM (inactive) with PC-3; 15.8 µM (inactive) in the assay with SNB-75; 1.21 µM (inactive) in the assay with SR; > 100 µM (inactive) in the assay with T47D; 24.8 µM (inactive) in the assay with TK-10; 15.2 µM (inactive) with UO-31.
